# According to patent US7442710B2, “Substituted phenyl methanones” (Hoffman-La Roche Inc., priority 2005, dated 2008):
# Target: T1, mGlyT-1b (Mus musculus, UniProt P28571)
# T1 construct: host or cells: Flp-in-CHO cells, stably transfected
# T1 sequence (P28571 1-651 isoform P28571-2): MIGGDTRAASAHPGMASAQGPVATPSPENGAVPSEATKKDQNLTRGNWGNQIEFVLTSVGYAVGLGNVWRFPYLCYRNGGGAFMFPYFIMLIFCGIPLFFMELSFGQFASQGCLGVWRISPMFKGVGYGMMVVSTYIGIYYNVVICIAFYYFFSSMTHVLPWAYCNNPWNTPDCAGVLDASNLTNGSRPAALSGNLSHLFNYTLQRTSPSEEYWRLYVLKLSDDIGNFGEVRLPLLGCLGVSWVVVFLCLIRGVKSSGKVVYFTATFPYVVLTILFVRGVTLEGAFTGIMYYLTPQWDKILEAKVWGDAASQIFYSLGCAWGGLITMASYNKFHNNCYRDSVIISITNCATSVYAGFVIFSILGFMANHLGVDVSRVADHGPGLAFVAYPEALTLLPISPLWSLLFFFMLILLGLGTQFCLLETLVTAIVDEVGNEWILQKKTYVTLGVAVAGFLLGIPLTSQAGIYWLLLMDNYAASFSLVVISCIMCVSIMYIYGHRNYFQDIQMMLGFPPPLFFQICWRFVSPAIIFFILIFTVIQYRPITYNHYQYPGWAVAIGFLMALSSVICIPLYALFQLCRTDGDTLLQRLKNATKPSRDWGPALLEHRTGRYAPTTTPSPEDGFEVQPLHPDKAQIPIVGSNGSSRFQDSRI
# Experiment: Glycine uptake inhibition assay (mGlyT-1b)
# Format: cell-based
# Settings: [3H]-glycine uptake, Flp-in-CHO cells transfected with mGlyT-1b cDNA
# Description: DMEM complete medium: Nutrient mixture F-12 (Gibco Life-technologies), fetal bovine serum (FBS) 5%, (Gibco life technologies), Penicillin/Streptomycin 1% (Gibco life technologies), Hygromycin 0.6 mg/ml (Gibco life technologies), Glutamine 1 mM Gibco life technologies).
# Uptake buffer (UB): 150 mM NaCl, 10 mM Hepes-Tris, pH 7.4, 1 mM CaCl2, 2.5 mM KCl, 2.5 mM MgSO4, 10 mM (+) D-glucose. Flp-in™-CHO (Invitrogen Cat n° R758-07)cells stably transfected with mGlyT1b cDNA.
# Glycine uptake inhibition assay (mGlyT-1b)
# On day 1 mammalian cells, (Flp-in™-CHO), transfected with mGlyT-1b cDNA, were plated at the density of 40,000 cells/well in complete F-12 medium, without hygromycin in 96-well culture plates. On day 2, the medium was aspirated and the cells were washed twice with uptake buffer (UB). The cells were then incubated for 20 min at 22° C. with either (i) no potential competitor, (ii) 10 mM non-radioactive glycine, (iii) a concentration of a potential inhibitor. A range of concentrations of the potential inhibitor was used to generate data for calculating the concentration of inhibitor resulting in 50% of the effect (e.g. IC50, the concentration of the competitor inhibiting glycine uptake of 50%). A solution was then immediately added containing [^3H]-glycine 60 nM (11-16 Ci/mmol) and 25 μM non-radioactive glycine. The plates were incubated with gentle shaking and the reaction was stopped by aspiration of the mixture and washing (three times) with ice-cold UB. The cells were lysed with scintillation liquid, shaken 3 hours and the radioactivity in the cells was counted using a scintillation counter.
row,SMILES,IC50
1,"C[C@H](Oc1ccc(S(C)(=O)=O)cc1C(=O)N1CCc2cc(C(F)(F)F)ccc2C1)C(F)(F)F [Example 1.14, [5-Methanesulfonyl-2-((S)-2,2,2-trifluoro-1-methyl-ethoxy)-phenyl]-(6-trifluoromethyl-3,4-dihydro-1H-isoquinolin-2-yl)-methanone]",175 nM
2,"CC(C)Oc1ccc(S(C)(=O)=O)cc1C(=O)N1CCc2cc(C#N)ccc2C1 [Example 1.20, 2-(2-Isopropoxy-5-methanesulfonyl-benzoyl)-1,2,3,4-tetrahydro-isoquinoline-6-carbonitrile]",454 nM
3,"C[C@H](Oc1ccc(S(C)(=O)=O)cc1C(=O)N1CCc2cc(Cl)ccc2C1)C(F)(F)F [Example 1.18, (6-Chloro-3,4-dihydro-1H-isoquinolin-2-yl)-[5-methanesulfonyl-2-((S)-2,2,2-trifluoro-1-methyl-ethoxy)-phenyl]-methanone]",157 nM
4,"COc1ccc2c(c1)CCN(C(=O)c1cc(S(C)(=O)=O)ccc1OC(C)C)C2 [Example 1.40, (2-Isopropoxy-5-methanesulfonyl-phenyl)-(6-methoxy-3,4-dihydro-1H-isoquinolin-2-yl)-methanone]",481 nM
5,"CC(C)Oc1ccc(S(C)(=O)=O)cc1C(=O)N1CCc2c(ccc3c4ccccc4n(C)c23)C1 [Example 1.47, (2-Isopropoxy-5-methanesulfonyl-phenyl)-(11-methyl-1,2,4,11-tetrahydro-pyrido[4,3-a]carbazol-3-yl)-methanone]",159 nM
6,"CC(C)Oc1ccc(S(C)(=O)=O)cc1C(=O)N1CCc2ccc(Cl)cc2C1 [Example 1.25, (7-Chloro-3,4-dihydro-1H-isoquinolin-2-yl)-(2-isopropoxy-5-methanesulfonyl-phenyl)-methanone]",215 nM
7,"CS(=O)(=O)c1ccc(-c2ccccc2)c(C(=O)N2CCc3nc(C(F)(F)F)ccc3C2)c1 [Example 1.8, (4-Methanesulfonyl-biphenyl-2-yl)-(2-trifluoromethyl-7,8-dihydro-5H-[1,6]naphthyridin-6-yl)-methanone]",82 nM
8,"CC(C)Sc1ccc(S(C)(=O)=O)cc1C(=O)N1CCc2cc(Cl)ccc2C1 [Example 1.57, (6-Chloro-3,4-dihydro-1H-isoquinolin-2-yl)-(2-isopropylsulfanyl-5-methanesulfonyl-phenyl)-methanone]",160 nM
9,"CC(C)Oc1ccc(S(C)(=O)=O)cc1C(=O)N1CCc2ccc(Cl)c(Cl)c2C1 [Example 1.26, (7,8-Dichloro-3,4-dihydro-1H-isoquinolin-2-yl)-(2-isopropoxy-5-methanesulfonyl-phenyl)-methanone]",163 nM
10,Cc1c2c(c(C)c3c1OCO3)CN(C(=O)c1cc(S(C)(=O)=O)ccc1OC(C)C)CC2 [Example 1.53],483 nM
11,"CS(=O)(=O)c1ccc(N2CCOCC2)c(C(=O)N2CCc3cc(C(F)(F)F)ccc3C2)c1 [Example 1.13, (5-Methanesulfonyl-2-morpholin-4-yl-phenyl)-(6-trifluoromethyl-3,4-dihydro-1H-isoquinolin-2-yl)-methanone]",321 nM
12,"CC(C)Oc1ccc(S(C)(=O)=O)cc1C(=O)N1CCc2cc(C(F)(F)F)ccc2C1 [Example 1.12, (2-Isopropoxy-5-methanesulfonyl-phenyl)-(6-trifluoromethyl-3,4-dihydro-1H-isoquinolin-2-yl)-methanone]",46 nM
13,"CC(C)Oc1ccc(S(C)(=O)=O)cc1C(=O)N1CCc2cccc(Cl)c2C1 [Example 1.30, (8-Chloro-3,4-dihydro-1H-isoquinolin-2-yl)-(2-isopropoxy-5-methanesulfonyl-phenyl)-methanone]",344 nM
14,"CS(=O)(=O)c1ccc(-c2ccccc2)c(C(=O)N2CCc3cc(C(F)(F)F)ccc3C2)c1 [Example 1.15, (4-Methanesulfonyl-biphenyl-2-yl)-(6-trifluoromethyl-3,4-dihydro-1H-isoquinolin-2-yl)-methanone]",168 nM
15,"CC(C)Oc1ccc(S(C)(=O)=O)cc1C(=O)N1CCc2cc(Cl)ccc2C1 [Example 1.19, (6-Chloro-3,4-dihydro-1H-isoquinolin-2-yl)-(2-isopropoxy-5-methanesulfonyl-phenyl)-methanone]",359 nM
